Data from patent US20090118135A1, “METHODS AND COMPOUNDS FOR REGULATING APOPTOSIS” (The Burnham Institute, priority 2007, published 2009).
Values joined by “and” are separate entries in the source; they are usually repeats but may differ in a detail not shown here. Equal values may be shown once. “Also recorded” adds a separate entry of the source. Read-outs that look alike come from different tables or passages of the source. Where a SMILES comes first, the peptide text is derived from it. [ ]: non-standard residue; d: D form. Ahx = NCCCCCC(=O)O

Columns and labels:
GST-Hsp70 = GST-Hsp70 (Homo sapiens, UniProt P0DMV8); test: FITC-ATP/GST-Hsp70 fluorescence polarization counter-screen; type: binding; conditions: HSP/FITC-ATP counter screen
Procedure: Dose-response curves were then generated (fluorescent compounds were eliminated), followed by counter-screening using a biologically unrelated FPA (GST-Hsp70/FITC-ATP).
A number of assays were then performed to eliminate non-specific or irreproducible hits (FIG. 21). […] Second, compound dose-response curves were generated using the fluorescence polarization assay. […] Finally, 1D-NMR was used to test the compounds for binding to GST-Bcl-B versus GST (as a negative control) (FIG. 22).

GST-Bcl-B [1] = molecular target: T1, GST-Bcl-B (Homo sapiens, UniProt Q9HD36); test: biochemical
T1 sequence (Q9HD36 1-182 limits assumed): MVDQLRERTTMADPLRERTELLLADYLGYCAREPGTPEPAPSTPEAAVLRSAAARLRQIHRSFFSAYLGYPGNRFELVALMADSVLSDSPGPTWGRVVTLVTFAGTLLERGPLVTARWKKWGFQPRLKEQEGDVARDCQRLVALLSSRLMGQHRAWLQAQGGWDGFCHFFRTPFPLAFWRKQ

GST-Bcl-2 [2] = molecular target: T2, GST-Bcl-2 (Homo sapiens, UniProt P10415); test: Bcl-2/FITC-TR3 fluorescence polarization competition assay (PBS + Tween-20); conditions: for Bcl-2 H Coefficient: Hill coefficient of Bcl-2 dose-response curve; for displacement of FITC-TR3-r8 from Bcl-2: result in words
GST-Bcl-B [3] = molecular target: T1, GST-Bcl-B; test: Bcl-B/FITC-TR3-r8 fluorescence polarization competition (displacement) assay, HTS and dose-response; conditions: for Bcl-B H Coefficient: Hill coefficient of Bcl-B dose-response curve; for displacement of FITC-TR3-r8 from GST-Bcl-B: result in words
GST = molecular target: T3, GST (Schistosoma japonicum, UniProt P08515); test: 1D 1H-NMR compound binding, GST negative control; conditions: negative control protein; result in words
T3 construct: made in house; host or cells: Escherichia coli BL21 Star (DE3), pGEX-4T-1
Procedure: (§1) FIGS. 22A-22F are line graphs showing a ^1H-NMR spectra confirmation of compound binding to Bcl-B. Compounds 5804000, 5954623, and 2011727 were diluted in PBS/D2O buffer to 1000 μM, then incubated with either GST (FIGS. 22A, C, E) or GST-Bcl-B (FIGS. 22B, D, F) at 0, 10 or 20 μM concentrations. FIGS. 22A-B show compound 5804000; FIGS. 22C-D show compound 5954623; and FIGS. 22E-F show the NMR spectra for the negative control compound 2011727. The most prominent peak shift for each compound is shown.
(§2) NMR experiments were performed at 25° C. on a 500 MHz Bruker Avance spectrometer (Bruker, Madison, Wis.) equipped with a 5 mm TXI probe. […] Reference solutions were then used in titration experiments with GST-Bcl-B or GST. All ^1H NMR spectra were obtained with the carrier position set to the water peak signal using WATERGATE. NMR data were processed and analyzed with MestRe Nova (MestReLab Research, Santiago de Compostela, Spain).

GST-Bcl-B [4] = molecular target: T1, GST-Bcl-B; test: FITC-Puma-BH3/GST-Bcl-B fluorescence polarization displacement assay; type: binding; set-up: their C-terminal transmembrane domains (˜20 amino acids) were deleted to enhance protein solubility; made in house; host or cells: E. coli (BL21 Star (DE3); XL-1 Blue), pGEX-4T-1; conditions: FIG. 23C; result in words
GST-Bcl-B [5] = molecular target: T1, GST-Bcl-B; test: FITC-Bim-BH3/GST-Bcl-B fluorescence polarization displacement assay; type: binding; set-up: their C-terminal transmembrane domains (˜20 amino acids) were deleted to enhance protein solubility; made in house; host or cells: E. coli (BL21 Star (DE3); XL-1 Blue), pGEX-4T-1; conditions: FIG. 23D; result in words
GST-Bcl-B [6] = molecular target: T1, GST-Bcl-B; test: 1D 1H-NMR compound binding, GST-Bcl-B; set-up: their C-terminal transmembrane domains (˜20 amino acids) were deleted to enhance protein solubility; made in house; host or cells: E. coli (BL21 Star (DE3); XL-1 Blue), pGEX-4T-1; conditions: result in words
Procedure: as §1, §2

[7] = tested on: HeLa Tet-On-Bcl-B (HTO2) cells; test: Cell viability (ATPlite) in HeLa Tet-On-Bcl-B cells with or without doxycycline; type: cell-based; conditions: 24 h, read-out: concentration required to reduce HeLa Tet-On-Bcl-B cell viability by 50%
Procedure: FIG. 24A is a photograph of a blot wherein HeLa Tet-On (HTO1) and HeLa Tet-On-Bcl-B (HTO2) cells were treated with or without doxycycline (dox) for 24 h to induce their tetracycline-responsive promoters. Protein lysates were collected, and immunoblotting was used to analyze Bcl-B and Hsc70 (for loading control) expression. In FIG. 24B the cells were treated with or without doxycycline for 24 h, and then with staurosporine at the indicated concentrations for 24 h. Cell viability was measured using ATPlite. In FIG. 24C HeLa Tet-On-Bcl-B (HTO2) cells were treated with or without doxacycline as above. Compounds were then added at the indicated concentrations, and cell viability was measured 24 h later using ATPlite. The data shown represent mean±standard deviation (n=3).
HeLa Tet-On-Bcl-B cells were generated by stably transfecting the HeLa Tet-On cell line (Clontech, Mountain View, Calif.) with a pTRE2hyg vector (Clontech) containing the Bcl-B gene, using lipofectAMINE PLUS (Invitrogen, Carlsbad, Calif.). Briefly, cells were seeded overnight and transfected at 50% confluency for 3 h. After 24 h, the cells were re-seeded at <10% confluence and cultured in media (DMEM with 10% Tet System Approved FBS (Clontech)) containing G418 (100 μg/mL) and hygromycin B (300 μg/mL) for pTet-On and pTRE2hyg/Bcl-B plasmid maintenance, respectively. Positive foci resistant to both antibiotics were expanded. Colonies were then cultured in the presence or absence of doxycycline (Clontech, 1 μg/mL) for 16 h, and induced Bcl-B expression was confirmed by Western blot analysis. A previously developed polyclonal Bcl-B antibody^17 and an Hsc70 antibody (for protein concentration comparison; Santa Cruz Biotechnology, Santa Cruz, Calif.) were used.
Cells were seeded in 96-well plates at 5,000 cells/well in 100 μL of growth medium and allowed to incubate for 24 h. Afterwards, cells were incubated in the presence or absence of doxycycline (1 μg/mL) for another 24 h (to induce Bcl-B expression). Compounds were then added, as indicated, in a volume of 5 μL. The next day, cell viability was measured using the ATPlite Luminescence ATP Detection System (PerkinElmer, Waltham, Mass.) according to the manufacturer's specifications.

GST-Bcl-2 [8] = molecular target: T2, GST-Bcl-2; test: biochemical

Chain of GST-Hsp70 (P0DMV8 whole entry): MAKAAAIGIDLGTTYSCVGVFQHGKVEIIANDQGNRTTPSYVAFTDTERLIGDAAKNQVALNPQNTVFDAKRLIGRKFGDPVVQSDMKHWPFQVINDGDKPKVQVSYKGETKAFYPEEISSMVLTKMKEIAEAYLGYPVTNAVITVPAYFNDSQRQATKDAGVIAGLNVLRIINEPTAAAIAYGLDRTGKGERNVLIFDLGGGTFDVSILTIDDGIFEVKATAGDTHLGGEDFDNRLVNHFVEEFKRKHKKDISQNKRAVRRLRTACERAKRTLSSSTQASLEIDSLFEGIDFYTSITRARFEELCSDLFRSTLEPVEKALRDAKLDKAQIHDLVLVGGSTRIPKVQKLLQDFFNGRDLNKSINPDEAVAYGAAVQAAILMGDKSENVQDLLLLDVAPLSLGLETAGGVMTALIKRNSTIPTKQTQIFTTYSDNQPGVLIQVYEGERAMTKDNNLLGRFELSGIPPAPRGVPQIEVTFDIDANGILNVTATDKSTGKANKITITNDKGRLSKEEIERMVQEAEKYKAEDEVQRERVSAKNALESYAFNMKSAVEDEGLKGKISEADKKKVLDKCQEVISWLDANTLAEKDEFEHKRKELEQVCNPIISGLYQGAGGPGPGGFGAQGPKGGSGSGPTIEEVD
T2 sequence (P10415 1-218 limits assumed): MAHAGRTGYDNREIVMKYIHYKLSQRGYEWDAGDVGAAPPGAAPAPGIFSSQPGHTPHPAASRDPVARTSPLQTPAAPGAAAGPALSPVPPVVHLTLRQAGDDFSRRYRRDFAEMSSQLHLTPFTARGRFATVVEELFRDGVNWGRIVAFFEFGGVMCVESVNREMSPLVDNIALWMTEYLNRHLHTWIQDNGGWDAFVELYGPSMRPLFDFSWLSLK
T3 sequence (P08515 whole entry): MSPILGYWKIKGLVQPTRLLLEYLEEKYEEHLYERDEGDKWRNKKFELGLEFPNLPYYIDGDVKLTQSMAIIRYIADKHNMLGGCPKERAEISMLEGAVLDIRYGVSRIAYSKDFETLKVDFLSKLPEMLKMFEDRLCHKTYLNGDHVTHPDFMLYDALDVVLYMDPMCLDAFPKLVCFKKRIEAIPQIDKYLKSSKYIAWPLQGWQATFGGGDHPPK

| SMILES | IC50 (GST-Bcl-B [1]) | Bcl-2 H Coefficient (GST-Bcl-2 [2]) | Bcl-B H Coefficient (GST-Bcl-B [3]) | also measured |
| --- | --- | --- | --- | --- |
| Clc1ccc(C2C=C(c3ccccc3)Nc3ncnn32)cc1 (centres unmarked) [Compound 5223675] | 14.2 µM |  | 0.939 | HSP70 IC50 (Hill) (GST-Hsp70): high |
| Nc1ccc(Oc2ccc(N)c(N)c2)cc1N [Compound 5152592] |  | 1.428 | 1.303 | HSP70 IC50 (Hill) (GST-Hsp70): High; IC50 (GST-Bcl-B [3]; Bcl-B IC50 (g/L)): 5.37 µM; IC50 (GST-Bcl-B [3]; Bcl-B IC50 (uM)): 5.37 µM |
| OC1=c2ccccc2=C(O)C12N=Nc1nnc(O)n1N2 [Compound 5627952] | 25.2 µM and 23.8 µM | 1.575 | 0.9192 |  |
| CC(=O)N[C@@H](Cc1ccccc1)C(=O)N[C@@H](CO)C(=O)N[C@@H](CCCNC(=N)N)C(=O)N[C@@H](CO)C(=O)N[C@@H](CC(C)C)C(=O)N[C@@H](Cc1c[nH]cn1)C(=O)N[C@@H](CO)C(=O)N[C@@H](CC(C)C)C(=O)N[C@@H](CC(C)C)C(=O)NCC(=O)NCCCCCC(=O)N[C@H](CCCNC(=N)N)C(=O)N[C@H](CCCNC(=N)N)C(=O)N[C@H](CCCNC(=N)N)C(=O)N[C@H](CCCNC(=N)N)C(=O)N[C@H](CCCNC(=N)N)C(=O)N[C@H](CCCNC(=N)N)C(=O)N[C@H](CCCNC(=N)N)C(=O)N[C@H](CCCNC(=N)N)C(N)=O [TR3-r8, reference compound] (Ac-FSRSLHSLLG[Ahx][dR][dR][dR][dR][dR][dR][dR][dR]-NH2) |  |  |  | displacement of FITC-TR3-r8 from Bcl-2 (GST-Bcl-2 [2]): effectively competed for binding; EC50 (GST-Bcl-B [3]): 0.0828 µM; displacement of FITC-TR3-r8 from GST-Bcl-B (GST-Bcl-B [3]): displaced FITC-TR3-r8 as expected |
| CN(C)CC[C@H](CSc1ccccc1)Nc1ccc(S(=O)(=O)NC(=O)c2ccc(N3CCN(Cc4ccccc4-c4ccc(Cl)cc4)CC3)cc2)cc1[N+](=O)[O-] [ABT-737, reference compound] |  |  |  | displacement of FITC-TR3-r8 from Bcl-2 (GST-Bcl-2 [2]): failed to block FITC-TR3-9-r8 peptide binding to Bcl-2; also recorded: did not effectively displace FITC-TR3-r8 from Bcl-2 |
| O=C(O[C@@H]1Cc2c(O)cc(O)cc2O[C@@H]1c1cc(O)c(O)c(O)c1)c1cc(O)c(O)c(O)c1 [EGCG, epigallecatechin] |  |  |  | IC50 ([7]; in the absence of Bcl-B (without doxycycline)): 79 µM; IC50 ([7]; in the presence of Bcl-B (with doxycycline)): ~93 µM; displacement of FITC-TR3-r8 from GST-Bcl-B (GST-Bcl-B [3]): none of these reagents displaced FITC-TR3-r8 |
| O=C(O)C1Nc2c(Cl)cc(Cl)cc2C2C=CCC12 (centres unmarked) [Compound 5736518] | 1.03 µM | 2.956 | 1.13 | IC50 (GST-Hsp70; read-out: HSP70 IC50 (Hill) (converted)): 37 µM |
| CC1=C(C#N)c2nc(N)c(C#N)c(C)c2/C1=C/c1ccc(-c2ccc(C(=O)O)c(Cl)c2)o1 [Compound 6025233] | 1.65 µM | 3.081 | 1.206 | HSP70 IC50 (Hill) (GST-Hsp70): high |
| O=S(=O)(O)c1cccc2cccc(Nc3ccccc3)c12 [Compound 5255876] |  |  | 2.628 | IC50 (GST-Bcl-2 [8]): 12.6 µM; IC50 (GST-Bcl-B [3]; Bcl-B IC50 (g/L)): 2.94 µM; IC50 (GST-Bcl-B [3]; Bcl-B IC50 (uM)): 2.95 µM |
| O=C(O)Cc1c[nH]c2ccc(O)cc12 [Compound 5106705] | 7.88 µM and 7.84 µM |  | 3.385 | IC50 (GST-Bcl-2 [8]): 9.83 µM and 9.78 µM |

The next lines start with results.

| IC50 (GST-Bcl-B [1]) | Bcl-2 H Coefficient (GST-Bcl-2 [2]) | Bcl-B H Coefficient (GST-Bcl-B [3]) | SMILES | also measured |
| --- | --- | --- | --- | --- |
| 0.942 µM | 1.457 | 0.9279 | Cc1ccc(C)n1-c1ccc(Cl)cc1C(=O)O [Compound 5950160] | HSP70 IC50 (Hill) (GST-Hsp70): high |
| 15.6 µM and 16.3 µM |  | 1.233 | Cc1ccc(C)n1-c1ccc(Br)cc1C(=O)O [Compound 5954623] | binding to GST by 1D-NMR (GST): did not bind to GST; EC50 (GST-Bcl-B [3]): 2.1 µM; displacement of FITC-Puma-BH3 from GST-Bcl-B (GST-Bcl-B [4]): displaced FITC-Puma-BH3; displacement of FITC-Bim-BH3 from GST-Bcl-B (GST-Bcl-B [5]): displaced FITC-Bim-BH3; binding to GST-Bcl-B by 1D-NMR (GST-Bcl-B [6]): bound to GST-Bcl-B in a concentration dependent manner |
| 9.96 µM | 1.653 | 0.9562 | Cc1ccc(C)n1-c1ccc(C(=O)O)c(Cl)c1 [Compound 5956338] |  |
| 0.542 µM | 0.6186 | 1.032 | Cc1ccc(C)n1-c1cc(C(=O)O)cc(C(=O)O)c1 [Compound 5950689] |  |
| 3.69 µM | 1.241 | 1.182 | Oc1ccc(Nc2nc(-c3ccccn3)cs2)cc1 [Compound 5662807] |  |
| 17.9 µM | 1.078 | 0.9962 | O=C(COc1ccc(Cl)cc1Cl)Nc1nnc(-c2ccco2)[nH]1 [Compound 5632817] |  |
| 11.3 µM |  | 1.599 | Cc1cc(C)nc(NC(=N)Nc2cccc(N)c2)n1 [Compound 5804000] | binding to GST by 1D-NMR (GST): did not bind to GST; IC50 ([7]; Homo sapiens, HeLa, in the absence of Bcl-B (without doxycycline)): ~148 µM; IC50 ([7]; Homo sapiens, HeLa, in the presence of Bcl-B (with doxycycline)): ~226 µM; EC50 (GST-Bcl-B [3]): 5.6 µM; displacement of FITC-Puma-BH3 from GST-Bcl-B (GST-Bcl-B [4]): did not; displacement of FITC-Bim-BH3 from GST-Bcl-B (GST-Bcl-B [5]): did not; binding to GST-Bcl-B by 1D-NMR (GST-Bcl-B [6]): bound to GST-Bcl-B in a concentration dependent manner |
